The values below come from patent publication US11512090B2, “Muscarinic acetylcholine M1 receptor antagonists” (PIPELINE THERAPEUTICS, INC., priority 2018, dated 2022).

Read-outs that look alike come from different tables or passages of the source.

Holding throughout (format): cell-based
The target of one assay is T1, human M1 receptor (Homo sapiens, UniProt P11229).
T1 sequence (P11229 1-460): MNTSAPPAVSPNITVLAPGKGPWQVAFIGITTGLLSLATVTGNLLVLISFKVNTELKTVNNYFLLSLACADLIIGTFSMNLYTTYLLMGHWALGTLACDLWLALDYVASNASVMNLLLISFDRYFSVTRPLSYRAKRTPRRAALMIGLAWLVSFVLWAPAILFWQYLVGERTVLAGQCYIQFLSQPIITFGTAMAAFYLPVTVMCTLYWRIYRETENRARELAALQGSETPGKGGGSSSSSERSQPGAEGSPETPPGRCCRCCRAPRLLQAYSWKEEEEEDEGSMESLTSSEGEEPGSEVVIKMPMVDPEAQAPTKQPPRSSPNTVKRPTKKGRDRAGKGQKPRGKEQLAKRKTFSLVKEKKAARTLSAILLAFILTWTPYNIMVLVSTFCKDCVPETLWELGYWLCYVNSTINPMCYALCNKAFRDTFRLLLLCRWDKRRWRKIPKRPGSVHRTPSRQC
Briefly: In vitro functional assay of muscarinic acetylcholine receptor activity (aequorin calcium flux, antagonist mode vs EC80 acetylcholine), M1. In outline:
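CHO-K1 cells stably co-expressing human M1 and aequorin were loaded with 5 uM coelenterazine h for 4 h at room temperature in the dark. IC50 came from the drop in luminescence.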
A general note: Calcium assays in cells follow changes in intracellular calcium, usually with a dye or a luminescent sensor.

Another assay concerns the target T2, M2 (Homo sapiens, UniProt P08172).
T2 sequence (P08172 1-466): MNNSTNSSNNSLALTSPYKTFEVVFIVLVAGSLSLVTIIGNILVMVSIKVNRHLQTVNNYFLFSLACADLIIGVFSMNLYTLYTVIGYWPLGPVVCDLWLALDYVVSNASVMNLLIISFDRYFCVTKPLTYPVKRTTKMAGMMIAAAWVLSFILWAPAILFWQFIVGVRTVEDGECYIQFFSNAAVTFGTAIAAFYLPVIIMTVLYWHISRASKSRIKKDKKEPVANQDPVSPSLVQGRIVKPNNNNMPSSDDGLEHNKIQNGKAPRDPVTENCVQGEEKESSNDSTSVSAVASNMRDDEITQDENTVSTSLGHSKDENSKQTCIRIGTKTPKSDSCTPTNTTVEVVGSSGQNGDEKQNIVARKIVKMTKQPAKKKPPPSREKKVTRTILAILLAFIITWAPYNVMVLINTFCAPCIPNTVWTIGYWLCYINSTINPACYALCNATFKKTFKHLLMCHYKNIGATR
Briefly: In vitro functional assay of muscarinic acetylcholine receptor activity, M2.

A further assay addresses M3 (Homo sapiens, UniProt P20309). Put plainly: In vitro functional assay of muscarinic acetylcholine receptor activity, M3.
Setting [1] is: CHO-K1 cells stably expressing human M1 receptor with Aequorin, decrease in EC80 acetylcholine response, read-out: M1 IC50.
Where [2] appears, read: antagonist IC50 at M2, read-out: M2 IC50.
[3] abbreviates: antagonist IC50 at M3, read-out: M3 IC50.

Sequence of M3 (P20309 whole entry): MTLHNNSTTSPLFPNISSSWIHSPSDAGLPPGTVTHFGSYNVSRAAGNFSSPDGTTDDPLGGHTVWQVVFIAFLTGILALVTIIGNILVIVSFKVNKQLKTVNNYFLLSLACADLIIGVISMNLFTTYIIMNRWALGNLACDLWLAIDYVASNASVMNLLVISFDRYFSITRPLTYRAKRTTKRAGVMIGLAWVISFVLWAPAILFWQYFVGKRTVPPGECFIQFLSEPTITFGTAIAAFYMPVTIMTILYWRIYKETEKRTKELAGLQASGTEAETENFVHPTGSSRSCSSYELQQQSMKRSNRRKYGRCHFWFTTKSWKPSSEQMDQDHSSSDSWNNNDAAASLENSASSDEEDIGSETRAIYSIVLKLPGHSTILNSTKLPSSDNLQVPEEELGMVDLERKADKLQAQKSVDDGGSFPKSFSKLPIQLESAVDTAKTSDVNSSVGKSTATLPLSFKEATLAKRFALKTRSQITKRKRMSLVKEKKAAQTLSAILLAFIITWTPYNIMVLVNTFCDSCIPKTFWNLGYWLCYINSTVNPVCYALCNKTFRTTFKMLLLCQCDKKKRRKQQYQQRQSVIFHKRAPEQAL

In general, IC50 refers to the concentration needed to halve the response being measured. As to `N#Cc1ccc(C2CC3CCC(C2)N3C(=O)CCS(=O)(=O)c2cccc3ncsc23)nc1` (stereo not drawn) [Example 142, 6-{8-[3-(1,3-benzothiazole-7-sulfonyl)propanoyl]-8-azabicyclo[3.2.1]octan-3-yl}pyridine-3-carbonitrile], the IC50 was 1000 to 10000 nM at human M1 receptor (setting [1]), 1000 to 10000 nM on M2 (setting [2]) and more than 10000 nM at M3 (setting [3]).
With `O=C(CCS(=O)(=O)c1cccc2nccn12)N1CC2CCC(C1)N2c1ccc(Cl)cn1` [Example 143, 1-[8-(5-chloropyridin-2-yl)-3,8-diazabicyclo[3.2.1]octan-3-yl]-3-{imidazo[1,2-a]pyridine-5-sulfonyl}propan-1-one], the IC50 on human M1 receptor is less than 100 nM; on M2 (setting [2]) it was 1000 to 10000 nM; on M3 (setting [3]), 1000 to 10000 nM.
In the case of `Cc1cc(C#N)ncc1N1CCN(C(=O)CCS(=O)(=O)c2cccc3nccn23)[C@@H](C)C1` [Example 144, 5-[(3S)-4-(3-{imidazo[1,2-a]pyridine-5-sulfonyl}propanoyl)-3-methylpiperazin-1-yl]-4-methylpyridine-2-carbonitrile], the IC50 on human M1 receptor (setting [1]) was less than 100 nM; at M2 (setting [2]) it was more than 10000 nM; on M3 (setting [3]), more than 10000 nM.
Regarding `N#Cc1ccc(N2C3CCC2CN(C(=O)CCS(=O)(=O)c2cccc4ncsc24)C3)cn1` [Example 146, 5-{3-[3-(1,3-benzothiazole-7-sulfonyl)propanoyl]-3,8-diazabicyclo[3.2.1]octan-8-yl}pyridine-2-carbonitrile], the IC50 on human M1 receptor was less than 100 nM; at M2 (setting [2]), 100 to 1000 nM; on M3 (setting [3]), 100 to 1000 nM.
Take `O=C(CCS(=O)(=O)c1cccc2ncsc12)N1CC2CCC(C1)N2c1ccc(C(F)(F)F)cn1` [Example 147, 3-(1,3-benzothiazole-7-sulfonyl)-1-{8-[5-(trifluoromethyl)pyridin-2-yl]-3,8-diazabicyclo[3.2.1]octan-3-yl}propan-1-one]: the IC50 at human M1 receptor, on M2 (setting [2]) and on M3 (setting [3]) was less than 100 nM throughout.
Turning to `O=C(CCNCc1cccc2ncsc12)N1CC2CCC(C1)N2c1ccc(C(F)(F)F)cn1` [Example 148, 3-{[(1,3-benzothiazol-7-yl)methyl]amino}-1-{8-[5-(trifluoromethyl)pyridin-2-yl]-3,8-diazabicyclo[3.2.1]octan-3-yl}propan-1-one], the IC50 at human M1 receptor was in the range of 100 to 1000 nM; at M2 (setting [2]), 1000 to 10000 nM; on M3 (setting [3]), 1000 to 10000 nM.
Consider `Cn1cnc2cccc(S(=O)(=O)CCC(=O)N3CCN(c4ccc(C(F)(F)F)cn4)CC3)c21` [Example 149, 3-[(1-methyl-1H-1,3-benzodiazol-7-yl)sulfonyl]-1-{4-[5-(trifluoromethyl)pyridin-2-yl]piperazin-1-yl}propan-1-one], for which the IC50 was less than 100 nM at human M1 receptor (setting [1]), 100 to 1000 nM at M2 (setting [2]) and 1000 to 10000 nM on M3 (setting [3]).
As to `N#Cc1ccc(N2C3CCC2CN(C(=O)CCNCc2cccc4nsnc24)C3)nc1` [Example 150, 6-[3-(3-{[(2,1,3-benzothiadiazol-4-yl)methyl]amino}propanoyl)-3,8-diazabicyclo[3.2.1]octan-8-yl]pyridine-3-carbonitrile], the values for the IC50 on human M1 receptor, on M2 (setting [2]) and on M3 (setting [3]) were 100 to 1000 nM, 1000 to 10000 nM and more than 10000 nM, respectively.
For `Cc1cc(C#N)ncc1N1CCN(C(=O)CCNCc2c(F)ccc3nccn23)[C@@H](C)C1` [Example 151, 5-[(3S)-4-{3-[({6-fluoroimidazo[1,2-a]pyridin-5-yl}methyl)amino]propanoyl}-3-methylpiperazin-1-yl]-4-methylpyridine-2-carbonitrile], the values for the IC50 on human M1 receptor (setting [1]), on M2 (setting [2]) and at M3 (setting [3]) were 1000 to 10000 nM, 1000 to 10000 nM and more than 10000 nM, respectively.
Consider `O=C(CCNCc1c(F)ccc2nccn12)N1CC2CCC(C1)N2c1ccc(C(F)(F)F)cn1` [Example 152, 3-[({6-fluoroimidazo[1,2-a]pyridin-5-yl}methyl)amino]-1-{8-[5-(trifluoromethyl)pyridin-2-yl]-3,8-diazabicyclo[3.2.1]octan-3-yl}propan-1-one], for which the IC50 is less than 100 nM on human M1 receptor, 1000 to 10000 nM at M2 (setting [2]) and more than 10000 nM on M3 (setting [3]).
As for `Cc1cc(C(F)(F)F)ncc1N1CCN(C(=O)CCS(=O)(=O)c2cccc3ncsc23)[C@@H](C)C1` [Example 153, 3-(1,3-benzothiazole-7-sulfonyl)-1-[(2S)-2-methyl-4-[4-methyl-6-(trifluoromethyl)pyridin-3-yl]piperazin-1-yl]propan-1-one], the IC50 was less than 100 nM on human M1 receptor (setting [1]), 100 to 1000 nM on M2 (setting [2]) and 100 to 1000 nM at M3 (setting [3]).
For `N#Cc1ccc(N2C3COCC2CN(C(=O)CCCc2cccc4ncccc24)C3)nc1` [Example 154, 6-{7-[4-(quinolin-5-yl)butanoyl]-3-oxa-7,9-diazabicyclo[3.3.1]nonan-9-yl}pyridine-3-carbonitrile], the IC50 was less than 100 nM at human M1 receptor, 1000 to 10000 nM on M2 (setting [2]) and 100 to 1000 nM at M3.
For `N#Cc1ccc(N2C3CCC2CN(C(=O)CCNCc2cccc4ncccc24)C3)nc1` [Example 155, 6-[3-(3-{[(quinolin-5-yl)methyl]amino}propanoyl)-3,8-diazabicyclo[3.2.1]octan-8-yl]pyridine-3-carbonitrile], the IC50 on human M1 receptor (setting [1]) was 1000 to 10000 nM; on M2 (setting [2]), more than 10000 nM; at M3 (setting [3]), more than 10000 nM.
`O=C(CCNCc1cccc2ncnn12)N1CC2CCC(C1)N2c1ccc(Br)cn1` [Example 156, 1-[8-(5-bromopyridin-2-yl)-3,8-diazabicyclo[3.2.1]octan-3-yl]-3-[({[1,2,4]triazolo[1,5-a]pyridin-5-yl}methyl)amino]propan-1-one]: the IC50 on human M1 receptor lay in the range of 100 to 1000 nM; on M2 (setting [2]), 1000 to 10000 nM; at M3 (setting [3]), 1000 to 10000 nM.
As for `O=C(CCNCc1cccc2ncnn12)N1CC2CCC(C1)N2c1ccc(Cl)cn1` [Example 157, 1-[8-(5-chloropyridin-2-yl)-3,8-diazabicyclo[3.2.1]octan-3-yl]-3-[({[1,2,4]triazolo[1,5-a]pyridin-5-yl}methyl)amino]propan-1-one], the IC50 at human M1 receptor is less than 100 nM; at M2 (setting [2]) it was more than 10000 nM; at M3 (setting [3]), more than 10000 nM.
On to `N#Cc1ccc(N2C3CCC2CN(C(=O)C(F)(F)CNCc2cccc4ncsc24)C3)nc1` [Example 158, 6-[3-(3-{[(1,3-benzothiazol-7-yl)methyl]amino}-2,2-difluoropropanoyl)-3,8-diazabicyclo[3.2.1]octan-8-yl]pyridine-3-carbonitrile], for which the values for the IC50 on human M1 receptor, on M2 and on M3 (setting [3]) were 100 to 1000 nM, 100 to 1000 nM and 1000 to 10000 nM, respectively.
Turning to `N#Cc1cc(N2C3CCC2CN(C(=O)CCNCc2cccc4ncsc24)C3)ccn1` [Example 159, 4-[3-(3-{[(1,3-benzothiazol-7-yl)methyl]amino}propanoyl)-3,8-diazabicyclo[3.2.1]octan-8-yl]pyridine-2-carbonitrile], the IC50 on human M1 receptor is less than 100 nM; at M2 (setting [2]) it was 1000 to 10000 nM; on M3 (setting [3]), more than 10000 nM.
As for `N#Cc1ccc(N2CC3CCC(C2)N3C(=O)CCNCc2cccc3ncsc23)nc1` [Example 160, 6-[8-(3-{[(1,3-benzothiazol-7-yl)methyl]amino}propanoyl)-3,8-diazabicyclo[3.2.1]octan-3-yl]pyridine-3-carbonitrile], the IC50 is 100 to 1000 nM on human M1 receptor, 1000 to 10000 nM at M2 (setting [2]) and more than 10000 nM at M3 (setting [3]).
